Patent US20120202793A1, “RHO KINASE INHIBITORS” (priority 2009, published 2012)

Experiments:
[1] = Body weight of rats fed a low fat diet; assay type: in vivo
Text: The effect of SLx-2119 supplementation on body weight of rats fed a low fat diet was also investigated.

[2] = Attenuation of weight gain in ApoE (−/−) and C57BL/6 mice on high fat diet; assay type: in vivo; settings: 0.1% in the diet from the fourth week, FIG. 15
Text: (§1) In a different experiment, ApoE (−/−) deficient mice were compared with C57BL/6 mice. All mice were initially fed a control diet for one week, and a high fat diet for the following 11 weeks. At the start of the fourth week, half of the C57BL/6 mice and half of the ApoE (−/−) mice were supplemented with 0.1% SLx-2119 in the diet.

[3] = Attenuation of hyperinsulinemia in Leptin deficient (ob−/ob−) mice; assay type: in vivo
Text: Leptin deficient (ob^−/ob^−) mice were maintained on a normal (control), or a high fat diet with or without SLx-2119. […] Attenuation of hyperinsulinemia was similarly observed in ob^−/ob^− mice maintained on a low fat diet (FIG. 26).

[4] = Attenuation of weight gain, C57BL/6 mice consuming a high fat diet; assay type: in vivo
Protocol: The ability of SLx-2119 to limit weight gain was evaluated by administration to C57BL/6, ApoE knockout, and leptin deficient mice as part of a high fat or low fat diet.
Three groups of 10 mice each were initially fed a control diet for a week. Two groups were then switched to a high fat diet in which 42% of the calories were from fat. SLx-2119 was included in the diet of one of the two groups. The third group continued on the control diet. Fasting glucose levels were measured during the first week (all groups consuming the control diet), and again during the third and sixth week.

[5] = Glucose tolerance in C57BL/6 mice after 54 days on diet; assay type: in vivo; settings: high fat diet with compound, meal after overnight fast, FIG. 14
Text: Separate groups of C57BL/6 mice were fed as above, and evaluated for glucose tolerance after 54 days. All mice were fed the same meal |what is the meal| after an overnight fast. […] (FIG. 14)

[6] = Fasting insulin and glucose levels in ApoE (−/−) and C57BL/6 mice on high fat diet; assay type: in vivo
Text: as §1
The reductions in fasting insulin levels were accompanied by reductions in fasting blood glucose levels. (FIG. 18, bottom).

[7] = Attenuation of weight gain in Leptin deficient (ob−/ob−) mice, low fat or high fat diet; assay type: in vivo
Protocol: The effect of SLx-2119 on weight gain in Leptin deficient (ob^−/ob^−) mice fed a low fat (normal) or high fat diet was also measured. […] The leptin deficient mice gained considerably more weight than normal 057BL/6 mice fed the low fat diet.
The leptin deficient mice consuming the high fat diet gained weigh at about four times the rate of normal mice on a low fat diet. […] As with the low fat diet, caloric intake was quite a bit higher in the ob^−/ob^− mice, whether or not they received SLx-2119. (FIG. 23).

ROCK 1 = ROCK 1 (Homo sapiens, UniProt Q13464); assay: Inhibition of Rho kinase ROCK 1 (Tables 2.1-2.4); assay type: biochemical
Protocol: (§2) Inhibitory activity for Rho kinase was determined for examples of compounds of the present invention. Inhibition of Rho kinase can be assayed as described. For each of these compounds their inhibitory activity for both ROCK1 and ROCK2 was determined.
(§3) The IC50 values (in μM) for each of these compounds show a selectivity for inhibiting ROCK2.

ROCK 2 = ROCK 2 (Homo sapiens, UniProt O75116); assay: Inhibition of Rho kinase ROCK 2 (Tables 2.1-2.4); assay type: biochemical
Protocol: as §2, §3

ROCK2 = assay: Inhibition of phosphorylation of S6 Long Peptide by ROCK1 and ROCK2 (33P filter assay), selective inhibition of ROCK2; assay type: biochemical
Protocol: Filtration was done in 96 well filter plates containing phosphocellulose cation exchange paper (Millipore, Cat#MAPHNOBIO).
The reaction was incubated for 40 minutes at room temperature and stopped with 25 ul 3% phosphoric acid. Reaction was then transferred to a filter plate wet with 75 mM phosphoric acid. The plate was then washed three times with 75 mM phosphoric acid and once with methanol. […] IC50 values were determined using Graphpad Prism.

Sequence of ROCK 2 (O75116 whole entry, species assumed): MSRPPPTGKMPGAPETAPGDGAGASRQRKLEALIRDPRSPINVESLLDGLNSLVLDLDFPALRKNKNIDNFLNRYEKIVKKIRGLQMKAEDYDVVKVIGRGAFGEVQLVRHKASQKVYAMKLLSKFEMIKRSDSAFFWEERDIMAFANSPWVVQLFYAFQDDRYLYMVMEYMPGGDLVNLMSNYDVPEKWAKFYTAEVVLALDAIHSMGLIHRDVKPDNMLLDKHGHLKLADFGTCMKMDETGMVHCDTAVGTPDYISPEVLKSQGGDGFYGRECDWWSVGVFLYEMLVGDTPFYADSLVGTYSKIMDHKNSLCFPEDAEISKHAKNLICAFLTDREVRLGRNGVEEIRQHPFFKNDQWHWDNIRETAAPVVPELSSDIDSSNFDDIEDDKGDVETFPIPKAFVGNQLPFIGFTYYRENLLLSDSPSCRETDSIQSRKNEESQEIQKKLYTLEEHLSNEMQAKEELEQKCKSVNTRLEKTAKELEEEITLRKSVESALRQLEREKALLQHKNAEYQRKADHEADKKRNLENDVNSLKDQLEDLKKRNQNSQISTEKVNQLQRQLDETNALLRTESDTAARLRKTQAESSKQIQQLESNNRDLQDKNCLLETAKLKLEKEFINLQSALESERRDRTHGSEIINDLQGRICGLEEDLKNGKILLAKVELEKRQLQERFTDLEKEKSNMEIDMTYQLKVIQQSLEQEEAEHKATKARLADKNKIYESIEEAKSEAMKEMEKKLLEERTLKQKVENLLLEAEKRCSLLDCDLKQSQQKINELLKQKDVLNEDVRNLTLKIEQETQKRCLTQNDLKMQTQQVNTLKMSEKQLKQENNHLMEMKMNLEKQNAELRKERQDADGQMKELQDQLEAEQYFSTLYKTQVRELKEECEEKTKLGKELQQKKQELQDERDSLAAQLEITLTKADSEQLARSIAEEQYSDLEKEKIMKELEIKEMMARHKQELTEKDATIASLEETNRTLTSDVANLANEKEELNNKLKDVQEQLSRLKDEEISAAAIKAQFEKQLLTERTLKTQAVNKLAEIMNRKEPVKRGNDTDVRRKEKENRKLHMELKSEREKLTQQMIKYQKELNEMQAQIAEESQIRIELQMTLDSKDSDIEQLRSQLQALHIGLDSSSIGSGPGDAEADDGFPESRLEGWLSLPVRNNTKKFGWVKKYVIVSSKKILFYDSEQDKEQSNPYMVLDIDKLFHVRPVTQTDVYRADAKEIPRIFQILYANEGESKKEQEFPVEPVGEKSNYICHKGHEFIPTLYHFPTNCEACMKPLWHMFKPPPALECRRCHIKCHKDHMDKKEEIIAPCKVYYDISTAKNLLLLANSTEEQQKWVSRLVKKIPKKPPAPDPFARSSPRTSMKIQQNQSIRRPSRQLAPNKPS
Sequence of ROCK 1 (Q13464 whole entry, species assumed): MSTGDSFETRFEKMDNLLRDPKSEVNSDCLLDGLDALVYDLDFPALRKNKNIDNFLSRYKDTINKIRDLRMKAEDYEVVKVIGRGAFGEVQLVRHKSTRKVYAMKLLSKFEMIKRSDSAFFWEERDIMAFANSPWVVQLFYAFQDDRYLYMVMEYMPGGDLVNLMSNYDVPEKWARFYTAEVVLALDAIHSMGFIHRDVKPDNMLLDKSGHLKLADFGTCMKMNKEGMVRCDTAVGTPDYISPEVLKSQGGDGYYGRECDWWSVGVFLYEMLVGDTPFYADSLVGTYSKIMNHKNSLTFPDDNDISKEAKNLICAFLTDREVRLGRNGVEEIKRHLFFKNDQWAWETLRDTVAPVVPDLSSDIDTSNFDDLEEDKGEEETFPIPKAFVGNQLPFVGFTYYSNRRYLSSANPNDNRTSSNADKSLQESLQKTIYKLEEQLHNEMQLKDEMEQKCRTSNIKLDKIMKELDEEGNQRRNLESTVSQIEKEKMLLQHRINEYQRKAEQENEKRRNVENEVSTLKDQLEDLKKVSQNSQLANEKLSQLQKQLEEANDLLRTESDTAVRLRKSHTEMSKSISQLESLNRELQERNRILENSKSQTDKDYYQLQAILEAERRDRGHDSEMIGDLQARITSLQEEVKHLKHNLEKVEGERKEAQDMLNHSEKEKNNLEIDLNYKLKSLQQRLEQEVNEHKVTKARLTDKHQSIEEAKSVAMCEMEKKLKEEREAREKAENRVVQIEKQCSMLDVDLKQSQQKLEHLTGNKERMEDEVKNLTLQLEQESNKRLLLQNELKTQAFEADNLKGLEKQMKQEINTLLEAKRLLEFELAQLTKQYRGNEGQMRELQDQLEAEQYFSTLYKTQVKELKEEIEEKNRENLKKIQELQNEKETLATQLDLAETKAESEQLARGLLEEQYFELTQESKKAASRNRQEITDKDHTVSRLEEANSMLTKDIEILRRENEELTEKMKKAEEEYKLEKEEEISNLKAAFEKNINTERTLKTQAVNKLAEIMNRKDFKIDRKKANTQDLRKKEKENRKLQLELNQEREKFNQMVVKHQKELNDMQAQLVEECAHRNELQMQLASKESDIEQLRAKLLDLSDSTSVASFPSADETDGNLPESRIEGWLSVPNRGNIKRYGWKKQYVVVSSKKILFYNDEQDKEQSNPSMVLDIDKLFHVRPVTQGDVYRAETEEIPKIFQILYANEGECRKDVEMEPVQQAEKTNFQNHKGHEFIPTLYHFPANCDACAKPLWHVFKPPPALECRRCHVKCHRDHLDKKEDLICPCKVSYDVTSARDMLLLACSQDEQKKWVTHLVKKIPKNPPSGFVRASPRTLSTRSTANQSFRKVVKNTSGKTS

What does the source list for `CC(C)NC(=O)COc1cccc(-c2nc(Nc3ccc4[nH]ncc4c3)c3ccccc3n2)c1` [SLx-2119]?
reduction of body weight gain ([1]; FIG. 27): about 6%; caloric intake ([1]; FIG. 28): little or no change; weight gain less than in mice that did not receive the supplement ([2]; ApoE (−/−) mice): 50%; weight gain less than in mice that did not receive the supplement ([2]; C57BL/6 mice): 33%; fasting blood glucose levels ([3]; high fat diet, FIG. 25): reduced to normal levels; fasting insulin levels ([3]; high fat diet, FIG. 25): significantly reduced; hyperinsulinemia ([3]; low fat diet, FIG. 26): Attenuation; weight gain ([4]; high fat diet (42% of calories from fat) supplemented with compound, versus control diet mice, FIG. 11): not distinguishable from the control mice; average caloric intake of untreated high fat diet mice relative to control and treated groups ([4]; high fat diet, FIG. 12): only slightly higher; glucose levels following feeding [5]: increased relative to mice maintained on the control diet, but not as high as in mice that did not receive SLx-2119; recovery of glucose levels [5]: quickly recovered to a normal level; fasting blood glucose levels ([6]; C57BL/6 and ApoE (−/−) mice, FIG. 18 bottom): reductions; fasting insulin levels ([6]; normal C57BL/6 mice, FIG. 18 top): reduction; weight gain ([7]; normal C57BL/6 mice, low fat diet, FIG. 19): no distinguishable effect; weight gain ([7]; ob−/ob− mice, high fat diet, FIG. 22): reduced by half; weight gain ([7]; ob−/ob− mice, low fat diet, versus ob−/ob− mice without compound, FIG. 19): gained only half as much weight

For `CCCC(=O)Nc1cccc(-c2nc(Nc3ccc4[nH]ncc4c3)c3ccc(OCCOC)cc3n2)c1` [Example 263], which IC50 (ROCK 1) is on record?
The IC50 was > 3000 nM.

And the IC50 (ROCK 2)?
The IC50 was 90 nM.

Which IC50 (ROCK 1) does the source give for `CC(=O)Oc1cccc(-c2nc(Nc3ccc4[nH]ncc4c3)c3ccccc3n2)c1` [Example 272] here?
Its IC50 is > 10000 nM.

What about the IC50 (ROCK 2) of the same compound?
The IC50 was 570 nM.

For `NC(=O)COc1cccc(-c2nc(Nc3ccc4[nH]ncc4c3)c3ccccc3n2)c1` [Example 84, 2-(3-(4-(1H-indazol-5-ylamino)quinazolin-2-yl)phenoxy)acetamide], which IC50 (ROCK 1) is on record?
The IC50 was 2600 nM.

What about the IC50 (ROCK 2) of the same compound?
The IC50 was 520 nM.

Which results are given for `COCCNC(=O)COc1cccc(-c2nc(Nc3ccc4[nH]ncc4c3)c3ccccc3n2)c1` [Example 54, 2-(3-(4-(1H-indazol-5-ylamino)quinazolin-2-yl)phenoxy)-N-(2-methoxyethyl)acetamide]?
IC50 (ROCK 1): > 10000 nM; IC50 (ROCK 2): 150 nM

Which IC50 (ROCK 1) does the source give for `CCCC(=O)Nc1cccc(-c2nc(Nc3ccc4[nH]ncc4c3)c3cc(OCCN(C)C)ccc3n2)c1` [Example 141, N-(3-(4-(1H-indazol-5-ylamino)-6-(2-(dimethylamino)ethoxy)quinazolin-2-yl)phenyl)butyramide] here?
Its IC50 is > 1000 nM.

What about the IC50 (ROCK 2) of the same compound?
Its IC50 is 40 nM.

Which “inhibition of ROCK2 compared with ROCK1” value (ROCK2) does the source give for `C[C@@H](N)[C@H]1CC[C@H](C(=O)Nc2ccncc2)CC1` [Example Y-27632] here?
Its value is “to the same extent”.

Which results are given for `O=C(COc1cccc(-c2nc(Nc3ccc4[nH]ncc4c3)c3ccccc3n2)c1)Nc1cccnc1` [Example 55, 2-(3-(4-(1H-indazol-5-ylamino)quinazolin-2-yl)phenoxy)-N-(pyridin-3-yl)acetamide]?
IC50 (ROCK 1): > 10000 nM; IC50 (ROCK 2): 90 nM

For `COc1cc2nc(-c3cccc(NC(=O)CN4CCOCC4)c3)nc(Nc3ccc4[nH]ncc4c3)c2cc1OCCN1CCCC1` [Example 167, N-(3-(4-(1H-Indazol-5-ylamino)-7-methoxy-6-(2-(pyrrolidin-1-yl)ethoxy)quinazolin-2-yl)phenyl)-2-morpholinoacetamide], which IC50 (ROCK 1) is on record?
Its IC50 is > 3000 nM.

What about the IC50 (ROCK 2) of the same compound?
Its IC50 is 60 nM.

For `CCCC(=O)Nc1cccc(-c2nc(Nc3ccc4[nH]ncc4c3)c3cc(OCCCN4CCOCC4)c(OC)cc3n2)c1` [Example 160, N-(3-(4-(1H-indazol-5-ylamino)-7-methoxy-6-(3-morpholinopropoxy)quinazolin-2-yl)phenyl)butyramide], which IC50 (ROCK 1) is on record?
Its IC50 is > 3000 nM.

What about the IC50 (ROCK 2) of the same compound?
The IC50 was 50 nM.
